Assay results as given in ChEMBL document CHEMBL1150641, “Bryoanthrathiophene, a new antiangiogenic constituent from the bryozoan Watersipora subtorquata (d'Orbigny, 1852)” (J Nat Prod, 2002).

What was measured:
[1] = Antiangiogenic activity against BAEC assessed as inhibition of bFGF-induced cell proliferation in presence of 10% fetal bovine serum after 3 days by MTT assay; type: functional, Bos taurus
[2] = Antiangiogenic activity against BAEC assessed as inhibition of bFGF-induced cell proliferation after 3 days by MTT assay; type: functional, Bos taurus
BAEC = experiment: Reduction of tube formation in bFGF-induced BAEC at 20 nM by Matrigel based tube formation assay; type: functional, cell-based; conditions: Bos taurus, TDE = time-dependent effect

SMILES | IC50 [1] [µM] | IC50 [2] [µM] | Activity (BAEC)
COC(=O)c1sc2ccc(O)c3c2c1-c1cccc(O)c1C3=O | 25.8 | 2.2 | –
Cc1sc2ccc(O)c3c2c1-c1cccc(O)c1C3=O [BRYOANTHRATHIOPHENE] | 0.22 | 0.005 | tde
O=C1c2cccc(O)c2C(=O)c2c(O)cccc21 [DANTHRON] | 20.1 | 5.7 | –
